Each block holds one compound with its values, some of them ahead of it.
What was measured:
[1] = test system: T-Rex 293 cell line SC3 cells having increased expression of androgen receptor protein due to exposure to doxycycline; assay: Cellular growth inhibition, T-Rex 293 SC3 cells with doxycycline (increased androgen receptor expression), CellTiter-Glo; assay type: cell-based; conditions: T-Rex 293 SC3 cells with 10 ng/mL doxycycline (increased androgen receptor expression), 72 hours, CellTiter-Glo 2.0
Method in brief: (§1)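 Growth inhibition is measured in an inducible AR-expressing T-Rex 293 clone, SC3, cultured with or without 10 ng/mL doxycycline in hormone-depleted medium. Test compounds are applied for 72 hours. GI50 values derive from CellTiter-Glo 2.0 signal fitted by four-parameter regression.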

[2] = test system: T-Rex 293 cell line SC3 cells lacking increased expression of androgen receptor protein; assay: Cellular growth inhibition, T-Rex 293 SC3 cells without doxycycline (no increased androgen receptor expression), CellTiter-Glo; assay type: cell-based; conditions: T-Rex 293 SC3 cells not exposed to doxycycline (no increased androgen receptor expression), 72 hours
Method in brief: as §1

T47D cells = assay: Cellular Growth Inhibition Assay for T47D Cells (CellTiter-Glo); assay type: cell-based, human; conditions: Homo sapiens, 72 hours
Method in brief: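 GI50 values derive from four-parameter regression of CellTiter-Glo 2.0 luminescence, using zero luminescence as baseline. Human breast cancer T47D cells (3000/well; DMEM, 10% FBS, 0.2 units/mL insulin) were exposed for 72 h to compound dilutions at 0.5% DMSO, with dosing starting 24 h after seeding.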

Compound: CCS(=O)(=O)Nc1ccc(Oc2cccc(OCCN(C)c3ncc(C(=O)N[C@H]4C(C)(C)[C@H](Oc5ccc(C#N)c(Cl)c5)C4(C)C)cn3)c2)c(-c2cn(C)c(=O)c3[nH]ccc23)c1 [Compound I-1, N-((1r, 3r)-3-(3-chloro-4-cyanophenoxy)-2,2,4,4-tetramethylcyclobutyl)-2-((2-(3-(4-(ethylsulfonamido)-2-(6-methyl-7-oxo-6,7-dihydro-1H-pyrrolo[2,3-c]pyridin-4-yl)phenoxy)phenoxy)ethyl)(methyl)amino)pyrimidine-5-carboxamide]
GI50 [1]: < 500 nM
GI50 [2]: 500 to 1500 nM

Compound: CCS(=O)(=O)Nc1ccc(Oc2cccc(OCCOCCOCCOCCOCCN(C)c3ncc(C(=O)N[C@H]4C(C)(C)[C@H](Oc5ccc(C#N)c(Cl)c5)C4(C)C)cn3)c2)c(-c2cn(C)c(=O)c3[nH]ccc23)c1 [Compound I-3]
GI50 [1]: < 500 nM
GI50 [2]: > 3000 nM

GI50 (T47D cells): < 500 nM
Compound: CCS(=O)(=O)Nc1ccc(Oc2cccc(OCCOC3CCN(c4ncc(C(=O)N[C@H]5C(C)(C)[C@H](Oc6ccc(C#N)c(Cl)c6)C5(C)C)cn4)CC3)c2)c(-c2cn(C)c(=O)c3[nH]ccc23)c1 [Compound I-6]
GI50 [1]: < 500 nM
GI50 [2]: < 500 nM

GI50 (T47D cells): < 500 nM
Compound: CCS(=O)(=O)Nc1ccc(Oc2cccc(OCCOCCOCCOC3CCN(c4ncc(C(=O)N[C@H]5C(C)(C)[C@H](Oc6ccc(C#N)c(Cl)c6)C5(C)C)cn4)CC3)c2)c(-c2cn(C)c(=O)c3[nH]ccc23)c1 [Compound I-7]
GI50 [1]: < 500 nM
GI50 [2]: < 500 nM

Compound: CCS(=O)(=O)Nc1ccc(Oc2cccc(OCCOCCOCCOCCOCCOC3CCN(c4ncc(C(=O)N[C@H]5C(C)(C)[C@H](Oc6ccc(C#N)c(Cl)c6)C5(C)C)cn4)CC3)c2)c(-c2cn(C)c(=O)c3[nH]ccc23)c1 [Compound I-8]
GI50 [1]: < 500 nM
GI50 [2]: < 500 nM

Compound: CCS(=O)(=O)Nc1ccc(Oc2cccc(OCCOC3CCN(c4ccc(C(=O)N[C@H]5C(C)(C)[C@H](Oc6ccc(C#N)c(Cl)c6)C5(C)C)nn4)CC3)c2)c(-c2cn(C)c(=O)c3[nH]ccc23)c1 [Compound I-11]
GI50 [1]: < 500 nM
GI50 [2]: < 500 nM

Compound: CCS(=O)(=O)Nc1ccc(Oc2cccc(OCCOCCOC3CCN(c4ncc(C(=O)N[C@H]5C(C)(C)[C@H](Oc6ccc(C#N)c(Cl)c6)C5(C)C)cn4)CC3)c2)c(-c2cn(C)c(=O)c3[nH]ccc23)c1 [Compound I-13]
GI50 [1]: < 500 nM
GI50 [2]: < 500 nM

GI50 (T47D cells): < 500 nM
Compound: CCS(=O)(=O)Nc1ccc(Oc2cccc(COC3CCN(c4ncc(C(=O)N[C@H]5C(C)(C)[C@H](Oc6ccc(C#N)c(Cl)c6)C5(C)C)cn4)CC3)c2)c(-c2cn(C)c(=O)c3[nH]ccc23)c1 [Compound I-18, N-((1r, 3r)-3-(3-chloro-4-cyanophenoxy)-2,2,4,4-tetramethylcyclobutyl)-2-(4-((3-(4-(ethylsulfonamido)-2-(6-methyl-7-oxo-6,7-dihydro-1H-pyrrolo[2,3-c]pyridin-4-yl)phenoxy)benzyl)oxy)piperidin-1-yl)pyrimidine-5-carboxamide]
GI50 [1]: < 500 nM
GI50 [2]: < 500 nM

Compound: CCS(=O)(=O)Nc1ccc(Oc2cccc(CCOC3CCN(c4ncc(C(=O)N[C@H]5C(C)(C)[C@H](Oc6ccc(C#N)c(Cl)c6)C5(C)C)cn4)CC3)c2)c(-c2cn(C)c(=O)c3[nH]ccc23)c1 [Compound I-19]
GI50 [1]: < 500 nM
GI50 [2]: < 500 nM

GI50 (T47D cells): < 500 nM
Compound: CCS(=O)(=O)Nc1ccc(Oc2cccc(N3CC4(CN(CC5CCN(c6ncc(C(=O)N[C@H]7C(C)(C)[C@H](Oc8ccc(C#N)c(Cl)c8)C7(C)C)cn6)CC5)C4)C3)c2)c(-c2cn(C)c(=O)c3[nH]ccc23)c1 [Compound I-35, N-((1r, 3r)-3-(3-chloro-4-cyanophenoxy)-2,2,4,4-tetramethylcyclobutyl)-2-(4-((6-(3-(4-(ethylsulfonamido)-2-(6-methyl-7-oxo-6,7-dihydro-1H-pyrrolo[2,3-c]pyridin-4-yl)phenoxy)phenyl)-2,6-diazaspiro[3.3]heptan-2-yl)methyl)piperidin-1-yl)pyrimidine-5-carboxamide]
GI50 [1]: < 500 nM
GI50 [2]: 1500 to 3000 nM

Compound: CCS(=O)(=O)Nc1ccc(Oc2cccc(N(C)C3CN(CC4CCN(c5ncc(C(=O)NC6C(C)(C)C(Oc7ccc(C#N)c(Cl)c7)C6(C)C)cn5)CC4)C3)c2)c(-c2cn(C)c(=O)c3[nH]ccc23)c1 (stereo not drawn) [Compound I-39]
GI50 [1]: < 500 nM
GI50 [2]: < 500 nM

GI50 (T47D cells): < 500 nM
Compound: CCS(=O)(=O)Nc1ccc(Oc2cccc(OC3CCC4(CC3)CCN(c3ncc(C(=O)N[C@H]5C(C)(C)[C@H](Oc6ccc(C#N)c(Cl)c6)C5(C)C)cn3)CC4)c2)c(-c2cn(C)c(=O)c3[nH]ccc23)c1 [Compound I-45]
GI50 [1]: < 500 nM
GI50 [2]: > 3000 nM

Compound: CCS(=O)(=O)Nc1ccc(Oc2cccc(OCCOC3CCN(c4ncc(C(=O)N[C@H]5C(C)(C)[C@H](Oc6ccc(C#N)c(Cl)c6)C5(C)C)cn4)CC3)n2)c(-c2cn(C)c(=O)c3[nH]ccc23)c1 [Compound I-47, N-((1r, 3r)-3-(3-chloro-4-cyanophenoxy)-2,2,4,4-tetra-methylcyclobutyl)-2-(4-(2-((6-(4-(ethylsulfonamido)-2-(6-methyl-7-oxo-6,7-dihydro-1H-pyrrolo[2,3-c]pyridin-4-yl)phenoxy)pyridin-2-yl)oxy)ethoxy)piperidin-1-yl)pyrimidine-5-carboxamide]
GI50 [1]: < 500 nM
GI50 [2]: < 500 nM

GI50 (T47D cells): < 500 nM
Compound: CCS(=O)(=O)Cc1ccc(Oc2cccc(OCCOC3CCN(c4ncc(C(=O)N[C@H]5C(C)(C)[C@H](Oc6ccc(C#N)c(Cl)c6)C5(C)C)cn4)CC3)c2)c(-c2cn(C)c(=O)c3[nH]ccc23)c1 [Compound I-54, N-((1r, 3r)-3-(3-chloro-4-cyanophenoxy)-2,2,4,4-tetramethylcyclobutyl)-2-(4-(2-(3-(4-((ethylsulfonyl)methyl)-2-(6-methyl-7-oxo-6,7-dihydro-1H-pyrrolo[2,3-c]pyridin-4-yl)phenoxy)phenoxy)ethoxy)piperidin-1-yl)pyrimidine-5-carboxamide]
GI50 [1]: < 500 nM
GI50 [2]: < 500 nM

GI50 (T47D cells): < 500 nM
Compound: Cn1cc(-c2cc(C(C)(C)O)ccc2Oc2cccc(OCCOC3CCN(c4ncc(C(=O)N[C@H]5C(C)(C)[C@H](Oc6ccc(C#N)c(Cl)c6)C5(C)C)cn4)CC3)c2)c2cc[nH]c2c1=O [Compound I-56, N-((1r, 3r)-3-(3-chloro-4-cyanophenoxy)-2,2,4,4-tetramethylcyclobutyl)-2-(4-(2-(3-(4-(2-hydroxypropan-2-yl)-2-(6-methyl-7-oxo-6,7-dihydro-1H-pyrrolo[2,3-c]pyridin-4-yl)phenoxy)phenoxy)ethoxy)piperidin-1-yl)pyrimidine-5-carboxamide]
GI50 [1]: < 500 nM
GI50 [2]: < 500 nM

GI50 (T47D cells): < 500 nM
Compound: Cn1cc(-c2ccccc2Oc2cccc(OCCOC3CCN(c4ncc(C(=O)N[C@H]5C(C)(C)[C@H](Oc6ccc(C#N)c(Cl)c6)C5(C)C)cn4)CC3)c2)c2cc[nH]c2c1=O [Compound I-61, N-((1r, 3r)-3-(3-chloro-4-cyanophenoxy)-2,2,4,4-tetramethylcyclobutyl)-2-(4-(2-(3-(2-(6-methyl-7-oxo-6,7-dihydro-1H-pyrrolo[2,3-c]pyridin-4-yl)phenoxy)phenoxy)ethoxy)piperidin-1-yl)pyrimidine-5-carboxamide]
GI50 [1]: < 500 nM
GI50 [2]: 1500 to 3000 nM

Compound: CCS(=O)(=O)c1ccc(Oc2cccc(OCCOC3CCN(c4ccc(C(=O)N[C@H]5C(C)(C)[C@H](Oc6ccc(C#N)c(Cl)c6)C5(C)C)cn4)CC3)c2F)c(-c2cn(C)c(=O)c3[nH]ccc23)c1 [Compound I-185]
GI50 [1]: < 500 nM
GI50 [2]: < 500 nM
